In patent US9802958B2, “Tetrahydro[1,8]naphthyridine sulfonamide and related compounds for use as agonists of RORy and the treatment of disease” (Lycera Corporation, priority 2012, dated 2017):

target: T1, RORγ-LBD (Homo sapiens, UniProt P51449); experiment: RORγ-Ligand Binding Domain (LBD) TR-FRET Assay; type: biochemical; conditions: assay measuring EC50 values less than or equal to 20 μM
T1 construct: made in house; host or cells: SF9 insect cells, baculovirus; unpurified lysate used
T1 sequence (P51449 269-508 limits assumed): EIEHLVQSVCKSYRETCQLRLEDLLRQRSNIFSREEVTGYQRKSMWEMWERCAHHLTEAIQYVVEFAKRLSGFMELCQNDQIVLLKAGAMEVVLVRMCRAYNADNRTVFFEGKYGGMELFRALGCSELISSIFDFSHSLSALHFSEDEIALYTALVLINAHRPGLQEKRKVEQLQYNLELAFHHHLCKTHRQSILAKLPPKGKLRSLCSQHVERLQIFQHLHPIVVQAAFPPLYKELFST
Procedure: Exemplary compounds from the above Examples were tested for ability to increase RORγ activity using a RORγ-Ligand Binding Domain (LBD) TR-FRET Assay. Assay procedures and results are described below.
Recombinant, HIS-tagged RORγ-LBD was expressed in SF9 cells using a baculovirus expression system. Cells were lysed and the lysate was used as a source for RORγ-LBD for the assay. A 1:80 dilution of RORγ-LBD lysate in assay buffer (25 mM HEPES pH 7.0, 100 mM NaCl, 0.01% Tween, 0.1% BSA) was prepared and 5 μL was added to each well (RORγ-LBD final concentration ˜3 nM). Control wells received lysate from SF9 cells not expressing RORγ-LBD.
Compounds to be tested were diluted to 100× final test concentration in DMSO and further diluted to 4× final test concentration using assay buffer to provide the test compound mixture. An aliquot (5 μL) of the test compound mixture was added to each well.
A 4× stock of biotinylated-LXXLL peptide from SRC1-2 (Biotin-[…]) was prepared in assay buffer and a 5 μL aliquot added to each well (450 nM final concentration). A 4× solution of europium tagged anti-HIS antibody (2 nM final concentration) and APC conjugated streptavidin (60 nM final concentration) were prepared and a 5 μL aliquot added to each well.
The final assay mixture was incubated for 4 hours to overnight, and the fluorescence signal was measured on an Envision plate reader: (Excitation filter=340 nm; APC emission=665 nm; Europium emission=615 nm; dichroic mirror=D400/D630; delay time=100 μs, integration time=200 μs).
EC50 values for test compounds were calculated from the quotient of the fluorescence signal at 665 nm divided by the fluorescence signal at 615 nm using GraphPad Prism software.

| Compound | promotion of RORγ activity |
| --- | --- |
| Cc1cccc(S(=O)(=O)N2CCOc3ccc(OC(C)c4ccccc4)nc32)c1 (stereo not drawn) [Compound 6] | No promotion of RORγ activity was detected |

same assay, conditions: increase of RORγ activity; recombinant HIS-tagged RORγ-LBD, biotinylated SRC1-2 LXXLL peptide

| Compound | EC50 [µM] |
| --- | --- |
| O=C(Nc1ccc2c(n1)N(S(=O)(=O)c1ccc(F)cc1)CCC2)c1c(F)cccc1F [Compound 1, 2,6-Difluoro-N-(8-(4-fluorobenzenesulfonyl)-5,6,7,8-tetrahydro[1,8]naphthyridin-2-yl)benzamide] | ≤ 15 |
| Cc1cccc(S(=O)(=O)N2CCOc3ccc(NC(=O)c4c(Cl)cccc4Cl)nc32)c1 [Compound 2, 2,6-Dichloro-N-[4-(toluene-3-sulfonyl)-3,4-dihydro-2H-pyrido[3,2-b][1,4]oxazin-6-yl]-benzamide] | ≤ 15 |

The remaining lines, values ahead:

| EC50 [µM] | Compound |
| --- | --- |
| ≤ 15 | Cc1cccc(S(=O)(=O)N2CCOc3ccc(OCc4ccccc4)nc32)c1 [Compound 4] |
| ≤ 15 | Cc1cccc(S(=O)(=O)N2CCOc3ccc(OCc4c(Cl)cccc4Cl)nc32)c1 [Compound 5] |
| ≤ 15 | Cc1cccc(S(=O)(=O)N2CCOc3ccc(NC(=O)C(C)c4ccccc4)nc32)c1 (stereo not drawn) [Compound 3, 2-Phenyl-N-[4-(toluene-3-sulfonyl)-3,4-dihydro-2H-pyrido[3,2-b][1,4]oxazin-6-yl]-propionamide] |
